The text below walks through data of patent US11130752B2, “Aminopyrimidine compound” (Cardurion Pharmaceuticals, LLC, priority 2018, dated 2021).

SMILES strings stand for the structures. Where only a bound is given, the exact number is not on record here.

The target of the experiment is T1, human CaMKIIδ (Homo sapiens, UniProt Q13557).
T1 construct: Full-length, glutathione-S-transferase(GST)-tagged, human CaMKIIδ was purchased from Carna Biosciences; purchased Carna Biosciences (CaMKIIδ); Wako Pure Chemical Industries (calmodulin) 02-111
Briefly: In vitro CaMKII inhibitory activity (binding assay, TR-FRET). The settings on record: activity ranks. As for the experimental part: Evaluation of In Vitro CaMKII Inhibitory Activity (Binding Assay)
In vitro CaMKIIδ inhibitory activity was evaluated by a binding assay.
Full-length, glutathione-S-transferase(GST)-tagged, human CaMKIIδ was purchased from Carna Biosciences (product #02-111, Kobe, Japan). Full-length bovine calmodulin was purchased from Wako Pure Chemical Industries (Osaka, Japan). Terbium-labeled anti-GST antibody (Tb-anti-GST Ab) was purchased from Life Technologies (Carlsbad, Calif., USA). Boron-dipyrromethene (BODIPY)-labeled probe ligand was synthesized as described below.
Time-Resolved Fluorescence Resonance Energy Transfer (TR-FRET) Assay
All assays were conducted using 384-well, white, flat-bottomed plates (product #784075, Greiner Bio-One, Frickenhausen, Germany) in kinase assay buffer, which consists of 50 mM HEPES pH 7.6, 10 mM MgCl2, 1 mM EGTA, 0.01% Brig-35, 0.1 mM DTT). The fluorescent probe ligand was added at a final concentration of 300 nM to solutions containing 0.21 nM Tb-anti-GST Ab, 1 mM CaCl2, 10 μg/mL calmodulin, and 0.5 nM GST-tagged CaMKIIδ. After shaded incubation of the protein-probe mixture on ice for 30 min, the premix was dispensed in the assay plate including test inhibitors with 4 fold dilution series of eight concentrations. After 1 hr incubation at room temperature, TR-FRET signals were measured in duplicate using an EnVision microplate reader (Perkin Elmer, Waltham, Mass., USA). The solution in each well was excited with a laser (λ=340 nm) reflected by a dichroic mirror (D400/D505 (Perkin Elmer) through an excitation filter (UV (TRF) 340, (Perkin Elmer)), and fluorescence from Tb and BODIPY were detected through two emission filters (CFP 495 (Perkin Elmer) for Tb, Emission 520 (Perkin Elmer) for BODIPY).
The percentage of inhibition of test compounds was calculated according to equation (1) Inhibition(%)=100×(μH−T)/(μH−μL) (1)
Where T is the value of the wells containing test compounds and μH and μL are the mean values of the 0% and 100% inhibition control wells, respectively. The values of the 0 and 100% controls were the signals obtained in the absence and presence of 3 μM its parent compound, respectively. The half maximal inhibitory concentration (IC50) of test compounds was calculated by fitting the data with the logistic equation using XLfit (IDBS, Guildford, UK). The IC50 was classified according to the following activity ranks.
(In general: TR-FRET usually uses a lanthanide donor and a delayed reading to cut background.)

The mark [1] stands for this setting: Table 1, GST-tagged human CaMKIIδ.
Setting [2] is: Table 4, GST-tagged human CaMKIIδ.

For `C[C@@H](Cn1cnnn1)Oc1cc(-c2cnc(Nc3cn([C@H]4CC[C@H](N5[C@@H]6CC[C@H]5COC6)CC4)nc3OCCCS(C)(=O)=O)nc2)ccc1Cl` [Example 142, 5-(3-(((S)-1-(1H-tetrazol-1-yl)propan-2-yl)oxy)-4-chlorophenyl)-N-(1-((1r,4r)-4-((1R,5S)-3-oxa-8-azabicyclo[3.2.1]octan-8-yl)cyclohexyl)-3-(3-(methylsulfonyl)propoxy)-1H-pyrazol-4-yl)pyrimidin-2-amine], the IC50 under setting [1] is less than 10 nM.
As for `C[C@@H](Cn1cnnn1)Oc1cc(-c2cnc(Nc3cn([C@H]4CC[C@H](N5CCOCC5)CC4)nc3OCCCOCC(F)F)nc2)ccc1Cl` [Example 47, 5-(3-(((S)-1-(1H-tetrazol-1-yl)propan-2-yl)oxy)-4-chlorophenyl)-N-(3-(3-(2,2-difluoroethoxy)propoxy)-1-((1r,4r)-4-morpholinocyclohexyl)-1H-pyrazol-4-yl)pyrimidin-2-amine], under setting [1], the IC50 was less than 10 nM.
In turn, `C[C@@H]1CN([C@H]2CC[C@H](n3cc(Nc4ncc(-c5ccc(Cl)c(O[C@@H](C)Cn6cnnn6)c5)cn4)c(OCC4COC4)n3)CC2)C[C@H](C)O1` [Example 480, 5-(3-(((S)-1-(1H-tetrazol-1-yl)propan-2-yl)oxy)-4-chlorophenyl)-N-(1-((1r,4r)-4-((2S,6R)-2,6-dimethylmorpholino)cyclohexyl)-3-(oxetan-3-ylmethoxy)-1H-pyrazol-4-yl)pyrimidin-2-amine] came in with an IC50 under setting [2] of less than 10 nM.
Turning to `C[C@@H](Cn1cnnn1)Oc1cc(-c2cnc(Nc3cn([C@H]4CC[C@H](N5CCOCC5)CC4)nc3OCCc3cccnc3)nc2)ccc1Cl` [Example 510, 5-(3-(((S)-1-(1H-tetrazol-1-yl)propan-2-yl)oxy)-4-chlorophenyl)-N-(1-((1r,4r)-4-morpholinocyclohexyl)-3-(2-(pyridin-3-yl)ethoxy)-1H-pyrazol-4-yl)pyrimidin-2-amine], under setting [2], the IC50 was less than 10 nM.
Turning to `C[C@@H](Cn1cnnn1)Oc1cc(-c2cnc(Nc3cn([C@H]4CC[C@H](N5CCOCC5)CC4)nc3OCc3ncco3)nc2)ccc1Cl` [Example 503, 5-(3-(((S)-1-(1H-tetrazol-1-yl)propan-2-yl)oxy)-4-chlorophenyl)-N-(1-((1r,4r)-4-morpholinocyclohexyl)-3-(oxazol-2-ylmethoxy)-1H-pyrazol-4-yl)pyrimidin-2-amine], the IC50 under setting [2] is less than 10 nM.
Turning to `CC(C)OCCOc1nn([C@H]2CC[C@H](N3CCOCC3)CC2)cc1Nc1ncc(-c2ccc(C#N)c(O[C@@H](C)Cn3cncn3)c2)cn1` [Example 16, 2-(((S)-1-(1H-1,2,4-triazol-1-yl)propan-2-yl)oxy)-4-(2-((3-(2-isopropoxyethoxy)-1-((1r,4r)-4-morpholinocyclohexyl)-1H-pyrazol-4-yl)amino)pyrimidin-5-yl)benzonitrile], under setting [1], the IC50 was less than 10 nM.
`COCCCOc1nn([C@H]2CC[C@H](N3CCOCC3)CC2)cc1Nc1ncc(-c2ccc(Cl)c(O[C@@H](C)Cn3cnnn3)c2)cn1` [Example 27, 5-(3-(((S)-1-(1H-tetrazol-1-yl)propan-2-yl)oxy)-4-chlorophenyl)-N-(3-(3-methoxypropoxy)-1-((1r,4r)-4-morpholinocyclohexyl)-1H-pyrazol-4-yl)pyrimidin-2-amine] had an IC50 under setting [1] of less than 10 nM.
Under setting [2], `Cc1noc(C)c1COc1nn([C@H]2CC[C@H](N3CCOCC3)CC2)cc1Nc1ncc(-c2ccc(Cl)c(O[C@@H](C)Cn3cnnn3)c2)cn1` [Example 506, 5-(3-(((S)-1-(1H-tetrazol-1-yl)propan-2-yl)oxy)-4-chlorophenyl)-N-(3-((3,5-dimethylisoxazol-4-yl)methoxy)-1-((1r,4r)-4-morpholinocyclohexyl)-1H-pyrazol-4-yl)pyrimidin-2-amine] displayed an IC50 of less than 10 nM.
The same measure, in the same setting: under `C[C@@H](Cn1cnnn1)Oc1cc(-c2cnc(Nc3cn([C@H]4CC[C@H](N5CCOCC5)CC4)nc3OCCn3ccnc3)nc2)ccc1Cl` [Example 507, N-(3-(2-(1H-imidazol-1-yl)ethoxy)-1-((1r,4r)-4-morpholinocyclohexyl)-1H-pyrazol-4-yl)-5-(3-(((S)-1-(1H-tetrazol-1-yl)propan-2-yl)oxy)-4-chlorophenyl)pyrimidin-2-amine] stands less than 10 nM.
`C[C@@H]1CN([C@H]2CC[C@H](n3cc(Nc4ncc(-c5ccc(Cl)c(O[C@@H](C)Cn6cnnn6)c5)cn4)c(OCCCOCCO)n3)CC2)C[C@H](C)O1` [Example 474, 2-(3-((4-((5-(3-(((S)-1-(1H-tetrazol-1-yl)propan-2-yl)oxy)-4-chlorophenyl)pyrimidin-2-yl)amino)-1-((1r,4r)-4-((2S,6R)-2,6-dimethylmorpholino)cyclohexyl)-1H-pyrazol-3-yl)oxy)propoxy)ethan-1-ol] yielded an IC50 under setting [2] of less than 10 nM.
In turn, `COCCOc1nn([C@H]2CC[C@H](N3CCOCC3)CC2)cc1Nc1ncc(-c2ccc(Cl)c(O[C@@H](C)Cn3cnnn3)c2)cn1` [Example 2, 5-(3-(((S)-1-(1H-tetrazol-1-yl)propan-2-yl)oxy)-4-chlorophenyl)-N-(3-(2-methoxyethoxy)-1-((1r,4r)-4-morpholinocyclohexyl)-1H-pyrazol-4-yl)pyrimidin-2-amine] registered an IC50 under setting [1] of less than 10 nM.
For `C[C@@H](Cn1cnnn1)Oc1cc(-c2cnc(Nc3cn([C@H]4CC[C@H](N5CCOCC5)CC4)nc3O)nc2)ccc1C#N` [Example 461, 2-(((S)-1-(1H-tetrazol-1-yl)propan-2-yl)oxy)-4-(2-((3-hydroxy-1-((1r,4r)-4-morpholinocyclohexyl)-1H-pyrazol-4-yl)amino)pyrimidin-5-yl)benzonitrile], under setting [1], the IC50 is less than 10 nM.
The compound `C[C@@H](Cn1cnnn1)Oc1cc(-c2cnc(Nc3cn([C@H]4CC[C@H](N5CCOCC5)CC4)nc3OCC3COC3)nc2)ccc1C#N` [Example 492, 2-(((S)-1-(1H-tetrazol-1-yl)propan-2-yl)oxy)-4-(2-((1-((1r,4r)-4-morpholinocyclohexyl)-3-(oxetan-3-ylmethoxy)-1H-pyrazol-4-yl)amino)pyrimidin-5-yl)benzonitrile] displayed an IC50 under setting [2] of less than 10 nM.
`C[C@@H]1CN([C@H]2CC[C@H](n3cc(Nc4ncc(-c5ccc(Cl)c(O[C@@H](C)Cn6cnnn6)c5)cn4)c(OCCCO)n3)CC2)C[C@H](C)O1` [Example 475, 3-((4-((5-(3-(((S)-1-(1H-tetrazol-1-yl)propan-2-yl)oxy)-4-chlorophenyl)pyrimidin-2-yl)amino)-1-((1r,4r)-4-((2S,6R)-2,6-dimethylmorpholino)cyclohexyl)-1H-pyrazol-3-yl)oxy)propan-1-ol] displayed a concentration for half-maximal inhibition (IC50) under setting [2] of less than 10 nM.
Compound `CCOCCCOc1nn([C@H]2CC[C@H](N3[C@@H]4CC[C@H]3COC4)CC2)cc1Nc1ncc(-c2ccc(Cl)c(O[C@@H](C)Cn3cnnn3)c2)cn1` [Example 242, 5-(3-(((S)-1-(1H-tetrazol-1-yl)propan-2-yl)oxy)-4-chlorophenyl)-N-(1-((1r,4r)-4-((1R,5S)-3-oxa-8-azabicyclo[3.2.1]octan-8-yl)cyclohexyl)-3-(3-ethoxypropoxy)-1H-pyrazol-4-yl)pyrimidin-2-amine] had an IC50 under setting [1] of less than 10 nM.
Take `C[C@@H](Cn1cnnn1)Oc1cc(-c2cnc(Nc3cn([C@H]4CC[C@H](N5CCOCC5)CC4)nc3OCc3ccnn3C)nc2)ccc1Cl` [Example 502, 5-(3-(((S)-1-(1H-tetrazol-1-yl)propan-2-yl)oxy)-4-chlorophenyl)-N-(3-((1-methyl-1H-pyrazol-5-yl)methoxy)-1-((1r,4r)-4-morpholinocyclohexyl)-1H-pyrazol-4-yl)pyrimidin-2-amine]: the IC50 under setting [2] is less than 10 nM.
Turning to `COCCOc1nn([C@H]2CC[C@H](N3CCOCC3)CC2)cc1Nc1ncc(-c2ccc(C#N)c(O[C@@H](C)Cn3cnnn3)c2)cn1` [Example 1, 2-(((S)-1-(1H-tetrazol-1-yl)propan-2-yl)oxy)-4-(2-((3-(2-methoxyethoxy)-1-((1r,4r)-4-morpholinocyclohexyl)-1H-pyrazol-4-yl)amino)pyrimidin-5-yl)benzonitrile], the IC50 under setting [1] was less than 10 nM.
Same read-out and setting: as for `C[C@@H](Cn1cnnn1)Oc1cc(-c2cnc(Nc3cn([C@H]4CC[C@H](N5CCOCC5)CC4)nc3OCc3ccccn3)nc2)ccc1Cl` [Example 130, 5-(3-(((S)-1-(1H-tetrazol-1-yl)propan-2-yl)oxy)-4-chlorophenyl)-N-(1-((1r,4r)-4-morpholinocyclohexyl)-3-(pyridin-2-ylmethoxy)-1H-pyrazol-4-yl)pyrimidin-2-amine], the figure is less than 10 nM.

Broadly, the IC50 is the midpoint of a concentration-inhibition curve.
